# Publication PMC3233971 (Amino acids, 2010)
# Residues, ends and D or L forms follow the SMILES beside them. No end group written: not given here. *: point of attachment. IRDye800CW = CC1(C)C(/C=C/C2=C(Oc3ccc(S(=O)(=O)O)cc3)C(=C/C=C3/N(CCCCS(=O)(=O)O)c4ccc(S(=O)(=O)O)cc4C3(C)C)/CCC2)=[N+](CCCCCC(=O)*)c2ccc(S(=O)(=O)[O-])cc21
# What was measured:
# LS174T tumor [1] = assay: Near-infrared fluorescence imaging of LS174T tumor-bearing mice; settings: 4 h after i.v. injection; 1 nmol dye/mouse
# [2] = test system: human umbilical endothelial cells (HUVEC); settings: 300 μg/ml peptide, 48 h exposure, absorbance 570 nm, n = 6
# [3] = test system: LS174T human colorectal cancer cells; settings: 300 μg/ml peptide, 48 h exposure, absorbance 570 nm, n = 6
# LS174T tumor [4] = type: in vivo, mouse; settings: 20 mg/kg i.p. every other day, 3 doses; 12 days after the optical imaging
compound,measurement,setting,value
CC(C)C[C@H](NC(=O)[C@@H](NC(=O)[C@H](Cc1c[nH]c2ccccc12)NC(=O)CCCCC[N+]1=C(C=CC2=C(Oc3ccc(S(=O)(=O)O)cc3)C(=CC=C3N(CCCCS(=O)(=O)O)c4ccc(S(=O)(=O)O)cc4C3(C)C)CCC2)C(C)(C)c2cc(S(=O)(=O)[O-])ccc21)[C@@H](C)O)C(=O)N[C@@H](CCCNC(=N)N)C(=O)N1CCC[C@H]1C(=O)N[C@H](C(=O)N[C@@H](CC(C)C)C(=O)N[C@@H](Cc1c[nH]cn1)C(=O)N[C@H](C(=O)N[C@@H](CC(=O)O)C(=O)N[C@@H](Cc1c[nH]cn1)C(=O)N[C@@H](C)C(=O)O)[C@@H](C)O)[C@@H](C)O [scrambled peptide dye conjugate] (IRDye800CW-WTLRPTLHTDHA-OH; N-terminus and C-terminus assumed),renal clearance in NIR fluorescence images,LS174T tumor [1],cleared through the kidneys much faster than the BRP peptide
LLADTTHHRPWT [BRP],cell viability (MTT),[2],92.2 ± 2.4%
same,cell viability (MTT),[3],98.3 ± 12.1%
bevacizumab: humanized monoclonal antibody directed against human VEGF,tumor volume,LS174T tumor [4],476.6 mm^3
